Experimental data published in patent publication US20260365670A1, “EGFR INHIBITORS AND USES THEREOF” (DIZAL (JIANGSU) PHARMACEUTICAL CO., LTD., priority 2022, published 2026).
Like-named read-outs stand apart in the source and are kept apart here.

Columns and labels:
EGFR Exon19Del = target: T1, EGFR Exon19Del (Homo sapiens, UniProt P00533, DEL746-750); experiment: Inhibition of EGFR Exon19Del biochemical enzymatic activity (HTRF); conditions: EGFR Exon19Del, 1 mM ATP, 1 h at room temperature, read-out: IC50 @Del19
T1 construct: purchased Carna Bio
Summary of the method: (§1)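 Phosphorylation of TK Substrate-biotin (1 μM) was measured at 1 mM ATP over a 1 h room-temperature incubation with serially varied compound. Detection was by HTRF ratio and analysis by 4PL fit to IC50.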

EGFR Exon19Del/T790M = target: T2, EGFR Exon19Del/T790M (Homo sapiens, UniProt P00533, DEL746-750/T790M); experiment: Inhibition of EGFR Exon19Del/T790M biochemical enzymatic activity (HTRF); conditions: EGFR Exon19Del/T790M, 1 mM ATP, 1 h at room temperature, read-out: IC50 @Del19-T790M
T2 construct: purchased Carna Bio
Summary of the method: as §1

EGFR[T790M/C797S/L858R] = target: T3, EGFR[T790M/C797S/L858R] (Homo sapiens, UniProt P00533, C797S/L858R/T790M); experiment: Inhibition of EGFR[T790M/C797S/L858R] biochemical enzymatic activity (HTRF); conditions: EGFR[T790M/C797S/L858R], 1 mM ATP, 1 h at room temperature, read-out: IC50 @T790M- C797S - L858R
T3 construct: purchased Carna Bio
Summary of the method: as §1

EGFR (C797S L858R) = target: T4, EGFR (C797S L858R) (Homo sapiens, UniProt P00533, C797S/L858R); experiment: Inhibition of EGFR (C797S L858R) biochemical enzymatic activity (HTRF); conditions: EGFR (C797S L858R), 1 mM ATP, 1 h at room temperature, read-out: IC50 @L858-C797S
T4 construct: purchased signalchem
Summary of the method: as §1

PC-9 = experiment: Cell proliferation assay, PC-9 cells (CellTiter-Glo, 72 hours); format: cell-based; conditions: PC9 cells, read-out: GI50 PC9
Summary of the method: (§2)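 GI50 is the concentration giving 50% proliferation inhibition. Growth for this was normalised to a baseline viability reading taken when compound was added, and to DMSO wells. PC-9 (500 cells/well) and mutant-EGFR Ba/F3 (5000 cells/well) are treated after overnight seeding in RPMI1640-based medium.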

EGFR (d746-750 C797S) = target: T5, EGFR (d746-750 C797S) (Homo sapiens, UniProt P00533, C797S/DEL746-750); experiment: Inhibition of EGFR (d746-750 C797S) biochemical enzymatic activity (HTRF); conditions: EGFR (d746-750 C797S), 1 mM ATP, 1 h at room temperature, read-out: IC50 @Del19-C797S
T5 construct: purchased signalchem
Summary of the method: as §1

[1] = system: Ba/F3 cells expressing EGFR mutations; experiment: Cell proliferation assay, Ba/F3 cells expressing EGFR mutations (CellTiter-Glo, 72 hours); format: cell-based
Summary of the method: as §2

EGFR wild type = target: T6, EGFR wild type (Homo sapiens, UniProt P00533); experiment: Inhibition of EGFR wild type biochemical enzymatic activity (HTRF); conditions: EGFR wild type, 1 mM ATP, 1 h at room temperature, read-out: IC50 @WT
T6 construct: purchased Carna Bio
Summary of the method: as §1

EGFR L858R/T790M = target: T7, EGFR L858R/T790M (Homo sapiens, UniProt P00533, L858R/T790M); experiment: Inhibition of EGFR L858R/T790M biochemical enzymatic activity (HTRF); conditions: EGFR L858R/T790M, 1 mM ATP, 1 h at room temperature, read-out: IC50 @L858R-T790M
T7 construct: purchased Carna Bio
Summary of the method: as §1

A-431 = experiment: Cell proliferation assay, A-431 cells (GI50, Table 6); format: cell-based
[2] = target: T8, EGFR[T790M/C797S/d746-750] (Homo sapiens, UniProt P00533, C797S/DEL746-750/T790M); experiment: Inhibition of EGFR[T790M/C797S/d746-750] biochemical enzymatic activity (HTRF); conditions: EGFR[T790M/C797S/d746-750], 1 mM ATP, 1 h at room temperature, read-out: IC50 @T790M - C797S - Del19
T8 construct: purchased Carna Bio
Summary of the method: as §1

EGFR L858R = target: T9, EGFR L858R (Homo sapiens, UniProt P00533, L858R); experiment: Inhibition of EGFR L858R biochemical enzymatic activity (HTRF); conditions: 1 mM ATP, 1 h at room temperature, read-out: IC50 @L858R
T9 construct: purchased Carna Bio
Summary of the method: as §1

[3] = BaF3 cells, EGFR DEL19 - C797S, read-out: GI50 DEL19 - C797S/BaF3
[4] = BaF3 cells, EGFR DEL19 - T790-C797S, read-out: GI50 DEL19 - T790-C797S/BaF3
[5] = BaF3 cells, EGFR L858R - C797S, read-out: GI50 L858R - C797S/BaF3
[6] = BaF3 cells, EGFR L858R - T790-C797S, read-out: GI50 L858R - T790-C797S/BaF3
[7] = BaF3 cells, EGFR L858R - T790M, read-out: GI50 L858R - T790M/BaF3
[8] = BaF3 cells, EGFR L858R, read-out: GI50 L858R/BaF3
[9] = EGFR DEL19 - T790M, read-out: GI50 DEL19 - T790M

T1 sequence (P00533 with tags, fused parts or gaps DEL746-750 limits assumed): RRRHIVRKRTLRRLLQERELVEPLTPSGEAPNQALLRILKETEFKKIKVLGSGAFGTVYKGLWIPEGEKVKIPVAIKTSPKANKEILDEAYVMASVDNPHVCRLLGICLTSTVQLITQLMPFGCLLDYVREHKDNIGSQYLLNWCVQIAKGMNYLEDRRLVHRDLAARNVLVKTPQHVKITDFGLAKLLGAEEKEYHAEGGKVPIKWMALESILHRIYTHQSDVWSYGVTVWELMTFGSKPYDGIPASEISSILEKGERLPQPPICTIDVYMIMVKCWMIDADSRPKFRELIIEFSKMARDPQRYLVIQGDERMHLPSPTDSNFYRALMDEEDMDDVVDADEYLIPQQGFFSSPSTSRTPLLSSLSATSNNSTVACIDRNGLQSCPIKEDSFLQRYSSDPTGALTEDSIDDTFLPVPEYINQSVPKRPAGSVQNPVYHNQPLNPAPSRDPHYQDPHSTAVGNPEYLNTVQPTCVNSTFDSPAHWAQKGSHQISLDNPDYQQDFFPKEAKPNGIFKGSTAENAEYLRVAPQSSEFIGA
T7 sequence (P00533 25-1210 T790M/L858R): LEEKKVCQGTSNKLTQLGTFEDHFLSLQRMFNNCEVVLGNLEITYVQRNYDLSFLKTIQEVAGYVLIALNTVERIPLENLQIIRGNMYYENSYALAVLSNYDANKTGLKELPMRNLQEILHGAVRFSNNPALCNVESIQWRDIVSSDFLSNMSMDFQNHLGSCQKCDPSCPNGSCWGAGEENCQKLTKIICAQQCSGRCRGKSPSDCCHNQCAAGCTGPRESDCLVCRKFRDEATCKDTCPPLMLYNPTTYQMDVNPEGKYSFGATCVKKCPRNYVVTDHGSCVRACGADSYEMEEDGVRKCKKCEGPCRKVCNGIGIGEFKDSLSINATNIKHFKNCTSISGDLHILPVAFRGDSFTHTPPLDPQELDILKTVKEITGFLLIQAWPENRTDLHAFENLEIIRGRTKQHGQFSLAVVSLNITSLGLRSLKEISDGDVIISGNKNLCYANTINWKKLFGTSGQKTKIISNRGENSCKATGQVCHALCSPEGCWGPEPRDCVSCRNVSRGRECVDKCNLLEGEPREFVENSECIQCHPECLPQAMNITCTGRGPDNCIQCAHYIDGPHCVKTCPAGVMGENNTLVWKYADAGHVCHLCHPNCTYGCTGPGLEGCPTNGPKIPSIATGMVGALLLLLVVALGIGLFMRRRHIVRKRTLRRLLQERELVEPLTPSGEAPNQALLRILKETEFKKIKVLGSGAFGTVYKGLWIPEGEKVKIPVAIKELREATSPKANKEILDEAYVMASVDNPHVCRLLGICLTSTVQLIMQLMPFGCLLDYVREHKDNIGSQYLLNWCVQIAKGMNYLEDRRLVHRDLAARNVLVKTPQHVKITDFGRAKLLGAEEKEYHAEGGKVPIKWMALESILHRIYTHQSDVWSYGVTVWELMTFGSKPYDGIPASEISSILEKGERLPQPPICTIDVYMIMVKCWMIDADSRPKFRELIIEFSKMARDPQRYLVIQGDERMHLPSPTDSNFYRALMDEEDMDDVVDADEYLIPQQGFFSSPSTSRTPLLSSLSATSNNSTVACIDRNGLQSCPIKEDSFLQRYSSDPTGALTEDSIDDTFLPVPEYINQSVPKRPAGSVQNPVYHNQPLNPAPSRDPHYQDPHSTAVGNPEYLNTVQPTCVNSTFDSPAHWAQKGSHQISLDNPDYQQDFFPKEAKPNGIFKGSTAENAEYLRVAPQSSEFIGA
T5 sequence (P00533 with tags, fused parts or gaps DEL746-750/C797S limits assumed): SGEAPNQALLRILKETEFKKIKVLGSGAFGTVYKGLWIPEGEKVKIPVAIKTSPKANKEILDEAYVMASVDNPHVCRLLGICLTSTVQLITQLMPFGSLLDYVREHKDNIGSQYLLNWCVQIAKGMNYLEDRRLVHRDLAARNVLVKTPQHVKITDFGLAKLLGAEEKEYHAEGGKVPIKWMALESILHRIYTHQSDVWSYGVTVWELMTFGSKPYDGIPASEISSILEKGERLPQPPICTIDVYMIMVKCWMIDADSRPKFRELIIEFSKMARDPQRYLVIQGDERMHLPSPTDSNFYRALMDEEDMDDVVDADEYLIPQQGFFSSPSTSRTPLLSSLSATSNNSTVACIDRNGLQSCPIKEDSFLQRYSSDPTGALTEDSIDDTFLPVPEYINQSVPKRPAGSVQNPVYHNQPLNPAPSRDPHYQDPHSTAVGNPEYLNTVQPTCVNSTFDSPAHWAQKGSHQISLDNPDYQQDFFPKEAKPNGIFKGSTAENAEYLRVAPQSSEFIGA
T9 sequence (P00533 25-1210 L858R): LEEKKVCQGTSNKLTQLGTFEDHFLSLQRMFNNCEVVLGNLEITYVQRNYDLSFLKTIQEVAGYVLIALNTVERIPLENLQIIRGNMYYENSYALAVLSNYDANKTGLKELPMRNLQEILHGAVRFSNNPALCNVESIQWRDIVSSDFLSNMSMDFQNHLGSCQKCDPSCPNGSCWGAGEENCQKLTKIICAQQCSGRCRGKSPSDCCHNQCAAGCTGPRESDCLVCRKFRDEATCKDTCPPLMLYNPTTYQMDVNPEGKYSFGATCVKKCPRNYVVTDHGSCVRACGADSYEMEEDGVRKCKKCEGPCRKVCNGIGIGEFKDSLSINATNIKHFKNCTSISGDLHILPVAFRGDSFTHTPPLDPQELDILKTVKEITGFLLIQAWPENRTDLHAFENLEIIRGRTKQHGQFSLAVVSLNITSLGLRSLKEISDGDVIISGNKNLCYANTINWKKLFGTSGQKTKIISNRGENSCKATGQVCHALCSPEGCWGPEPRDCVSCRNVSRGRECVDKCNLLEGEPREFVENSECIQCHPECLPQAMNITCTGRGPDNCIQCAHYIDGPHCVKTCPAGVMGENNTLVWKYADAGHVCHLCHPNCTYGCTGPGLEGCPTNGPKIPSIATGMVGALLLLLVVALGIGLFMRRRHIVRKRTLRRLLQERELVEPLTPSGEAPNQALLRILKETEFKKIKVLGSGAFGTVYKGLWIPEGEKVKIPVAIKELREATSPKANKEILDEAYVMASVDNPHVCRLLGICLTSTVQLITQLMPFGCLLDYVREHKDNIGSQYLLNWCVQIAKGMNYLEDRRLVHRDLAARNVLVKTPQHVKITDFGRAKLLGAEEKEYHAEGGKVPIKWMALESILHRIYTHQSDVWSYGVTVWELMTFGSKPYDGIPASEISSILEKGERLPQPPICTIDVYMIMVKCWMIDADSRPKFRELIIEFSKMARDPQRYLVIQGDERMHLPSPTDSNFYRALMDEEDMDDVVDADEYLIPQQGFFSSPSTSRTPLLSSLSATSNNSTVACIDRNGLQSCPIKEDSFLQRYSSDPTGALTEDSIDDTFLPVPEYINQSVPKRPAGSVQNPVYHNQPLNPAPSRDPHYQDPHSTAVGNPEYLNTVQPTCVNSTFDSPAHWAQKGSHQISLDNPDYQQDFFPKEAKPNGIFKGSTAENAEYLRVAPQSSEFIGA
T4 sequence (P00533 25-1210 C797S/L858R): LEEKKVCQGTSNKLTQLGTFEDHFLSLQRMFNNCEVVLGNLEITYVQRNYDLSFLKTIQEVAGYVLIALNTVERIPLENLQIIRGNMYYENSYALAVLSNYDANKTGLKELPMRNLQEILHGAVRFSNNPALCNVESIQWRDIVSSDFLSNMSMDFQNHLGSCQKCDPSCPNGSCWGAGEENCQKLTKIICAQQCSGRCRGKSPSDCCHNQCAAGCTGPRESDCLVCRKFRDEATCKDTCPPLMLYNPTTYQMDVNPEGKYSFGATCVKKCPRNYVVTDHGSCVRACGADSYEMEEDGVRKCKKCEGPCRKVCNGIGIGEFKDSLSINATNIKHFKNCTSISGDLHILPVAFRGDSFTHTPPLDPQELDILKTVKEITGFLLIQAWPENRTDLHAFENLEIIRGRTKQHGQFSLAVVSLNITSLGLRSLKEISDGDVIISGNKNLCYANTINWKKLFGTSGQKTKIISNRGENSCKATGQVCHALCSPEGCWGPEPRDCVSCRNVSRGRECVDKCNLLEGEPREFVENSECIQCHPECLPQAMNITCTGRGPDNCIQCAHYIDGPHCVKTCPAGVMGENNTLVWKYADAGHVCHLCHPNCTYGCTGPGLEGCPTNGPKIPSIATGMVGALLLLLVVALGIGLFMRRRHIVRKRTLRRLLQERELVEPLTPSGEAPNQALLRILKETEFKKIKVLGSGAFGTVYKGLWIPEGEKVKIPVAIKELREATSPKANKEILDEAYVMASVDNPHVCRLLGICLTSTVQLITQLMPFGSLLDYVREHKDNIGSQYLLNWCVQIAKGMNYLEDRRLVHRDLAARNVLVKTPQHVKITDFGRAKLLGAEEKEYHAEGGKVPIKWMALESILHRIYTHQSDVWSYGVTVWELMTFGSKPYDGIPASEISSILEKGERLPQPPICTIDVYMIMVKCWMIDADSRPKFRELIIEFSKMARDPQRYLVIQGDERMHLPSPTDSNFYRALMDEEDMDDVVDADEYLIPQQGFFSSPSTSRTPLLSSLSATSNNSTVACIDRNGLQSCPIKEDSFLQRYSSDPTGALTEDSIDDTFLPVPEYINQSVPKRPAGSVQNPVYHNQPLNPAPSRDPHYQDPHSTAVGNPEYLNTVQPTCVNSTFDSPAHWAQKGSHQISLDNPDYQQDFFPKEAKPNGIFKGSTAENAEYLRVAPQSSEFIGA

SMILES	IC50 (EGFR Exon19Del) [nM]	IC50 (EGFR Exon19Del/T790M) [nM]	IC50 (EGFR[T790M/C797S/L858R]) [nM]	IC50 (EGFR (C797S L858R)) [nM]	IC50 (EGFR (d746-750 C797S)) [nM]	IC50 (EGFR wild type) [nM]	IC50 (EGFR L858R/T790M) [nM]	IC50 [2] [nM]	IC50 (EGFR L858R) [nM]	GI50 (PC-9) [nM]	GI50 [1, 3] [nM]	GI50 [1, 4] [nM]	GI50 [1, 5] [nM]	GI50 [1, 6] [nM]	GI50 [1, 7] [nM]	GI50 [1, 8] [nM]	GI50 [1, 9] [nM]	GI50 (A-431; A-431 cells) [nM]	other results
Cc1cc2cc(n1)-c1cnn(C)c1OCCCCCn1c(nc3ccc4c(c31)CCNC4)NC2=O [Example B16, 5,30-dimethyl-7-oxa-4,5,13,18,24,26,31-heptaazahexacyclo[26.3.1.0^{2,6}.0^{13,25}.0^{14,23}.0^{15,20}]dotriaconta-1(31),2(6),3,14,20,22,24,28(32),29-nonaen-27-one]	497	7.1	55	> 5000	197	> 5000	446	3.2	> 5000										GI50 (PC-9; Homo sapiens, PC-9, 72 h): 438 nM; GI50 ([1]; Mus musculus, BaF3, 72 h, BaF3 cells, EGFR DEL19 - C797S, read-out: GI50 DEL19 - C797S/BaF3): 57 nM; GI50 ([1]; Mus musculus, BaF3, 72 h, BaF3 cells, EGFR L858R - C797S, read-out: GI50 L858R - C797S/BaF3): 297 nM; GI50 ([1]; Mus musculus, BaF3, 72 h, BaF3 cells, EGFR L858R - T790-C797S, read-out: GI50 L858R - T790-C797S/BaF3): 8.8 nM; GI50 ([1]; Mus musculus, BaF3, 72 h, BaF3 cells, EGFR L858R - T790M, read-out: GI50 L858R - T790M/BaF3): 308 nM; GI50 ([1]; Mus musculus, BaF3, 72 h, BaF3 cells, EGFR L858R, read-out: GI50 L858R/BaF3): 286 nM; GI50 ([1]; Mus musculus, BaF3, 72 h, EGFR DEL19 - T790M, read-out: GI50 DEL19 - T790M): 29 nM; GI50 (A-431; Homo sapiens, A-431, A-431 cells): 3230 nM
Cc1cc2cc(n1)-c1cnn(C)c1OCCN1CC3CCC(C3)(C1)n1c(nc3ccc(N4CCC(N5CCOCC5)C4)cc31)NC2=O (single isomer, unassigned) [Example B44B2]	21	8.4	5.5	66	8.5	4900	14	7	267	22	2	2	11	2	2	19	8	3060	
Cc1cc2cc(n1)-c1cnn(C)c1OCCN1CC3CCC(C3)(C1)n1c(nc3ccc(N4CCN(C5CC5)CC4)cc31)NC2=O (single isomer, unassigned) [Example B55A]	> 5000	> 5000	> 5000	> 5000	> 5000	> 5000	> 5000	2740	> 5000	1930	549	638	2560	350	939	4180	1100	7540	
